Key:
[1] = target: T1, PPARγ (Homo sapiens, UniProt P37231); assay: ITC (reverse titration) and X-ray crystal structure; also affinity cartridge and GAL4 antagonist assay (IC50 […]); assay type: binding
T1 construct: gene PPARG
T1 sequence (P37231 222-505): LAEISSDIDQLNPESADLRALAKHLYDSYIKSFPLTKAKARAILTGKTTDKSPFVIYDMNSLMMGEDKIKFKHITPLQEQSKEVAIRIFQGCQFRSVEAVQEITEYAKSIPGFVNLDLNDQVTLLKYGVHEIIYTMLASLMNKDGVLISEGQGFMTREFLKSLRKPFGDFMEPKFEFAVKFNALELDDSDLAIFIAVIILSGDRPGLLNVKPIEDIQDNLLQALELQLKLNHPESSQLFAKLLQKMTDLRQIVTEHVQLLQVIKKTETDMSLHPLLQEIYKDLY

[2] = target: T2, PPARγ (Homo sapiens, UniProt P37231); assay: immobilized-receptor affinity cartridge (breakthrough shift); also GAL4 transactivation partial agonist, Emax […]; assay type: binding
T2 construct: gene PPARG; His-tagged PPARγ LBD
T2 sequence (P37231 231-505 limits assumed): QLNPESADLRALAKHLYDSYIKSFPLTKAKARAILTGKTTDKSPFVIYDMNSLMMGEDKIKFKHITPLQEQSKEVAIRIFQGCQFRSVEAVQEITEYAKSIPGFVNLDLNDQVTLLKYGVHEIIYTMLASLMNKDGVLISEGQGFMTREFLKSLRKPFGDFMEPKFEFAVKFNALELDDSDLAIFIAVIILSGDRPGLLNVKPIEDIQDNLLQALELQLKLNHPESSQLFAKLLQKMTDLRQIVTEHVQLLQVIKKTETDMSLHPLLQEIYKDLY

Row | SMILES | Kd [1] [µM] | immobilized-receptor affinity cartridge (breakthrough shift); also GAL4 transact [2]
1 | C=C(C)[C@@H]1CC[C@]2(C(=O)O)CC[C@]3(C)[C@H](CC[C@@H]4[C@@]5(C)CC[C@H](O)C(C)(C)[C@@H]5CC[C@]43C)[C@@H]12 [BA, betulinic acid] | 4 | –
2 | CC1=CC(=O)c2c(O)cccc2C1=O [plumbagin] | – | only three ligands (i.e., plumbagin, BA and coumarin) interact with the receptor

From article PMC5516003, “Betulinic acid is a PPARγ antagonist that improves glucose uptake, promotes osteogenesis and inhibits adipogenesis” (Scientific Reports, 2017)
